Reference: patent US4526890A, “3,6,7,8-Substituted-s-triazolo[4,3-b]pyridazines as bronchodilators” (The Dow Chemical Company, priority 1981, dated 1985)

Assays:
[1] = tested on: histamine-induced bronchoconstriction; settings: in words; cited from earlier work
mice [2] = experiment: in vivo; settings: mouse
Experimental: (§1) The interaction of sound with the convulsive threshold of drugs is a known phenomenon which can be used to evaluate such side effects. […] In a procedure for pharmacological evaluation, the lowering of the convulsive threshold, or the lowering of the LD50, by sound can be studied in mice.
(§2) In the test operations, mice are administered a test compound by intraperitoneal injection at various dosages, and the number of mice showing tonic convulsions and the number of fatalities occurring within 30 minutes is recorded.
(§3) The sound exposure is carried out by placing the mice in a sound insulated cage with a bell which emits 120 decibels of sound, and activating the bell for two minutes. The number of tonic convulsions and fatalities are then recorded to determine the ED50 and LD50 in the presence of the sound challenge.

[3] = Audiogenic convulsive side effects (sound challenge: tonic convulsions and fatalities); settings: mouse, ip
Experimental: as §1, §2, §3

[4] = 30 minute LD50 (acute toxicity without sound); settings: mouse, in vivo, ip
Experimental: as §1, §2

[5] = tested on: histamine-induced bronchoconstriction; experiment: Bronchodilator activity in the Konzett-Rossler guinea pig preparation (histamine-induced bronchoconstriction); type: in vivo; design: key to Histamine Blockade: % blockade = 100 − (post-dose response / mean of 3 prior) × 100; settings: for Histamine Blockade: table 7, intravenous, 3 mg/kg except as otherwise indicated, aminophylline 10 mg/kg
Experimental: Bronchodilator activity of representative triazolopyridazine compounds of the invention is examined in the Konzett-Rossler quinea pig preparation according to accepted procedures. See Knozett and Rossler; Arch. f. Exp. Path. u. Pharmakol. […] Int. Pharmacodyn. […] In this procedure an anesthetized guinea pig is artificially respired with a fixed volume of air. The volume of air is selected to slightly exceed the capacity of the guinea pig's lungs, and the excess air or "overflow" is measured. Test compounds are evaluated by administering a test compound intravenously 2 minutes prior to administration of an agonist compound (histamine, serotonin or acetylcholine) following 3 previous agonist doses resulting in relatively uniform (±10 percent) bronchoconstriction. […] This is calculated by dividing the "overflow" agonist response measured after administration of the test compound by the average of the 3 preceding agonist responses, multiplying by 100 and subtracting this value from 100 percent.

mice [6] = settings: laboratory animals; in words; U.S. Pat. No. 4,136,182; cited from earlier work
mice [7] = settings: laboratory animals; in words; U.S. Pat. No. 4,136,182; cited from earlier work; remark: listed apart in the source

| Structure (SMILES) | effect on bronchoconstriction [1] | audiogenic convulsive threshold / sound-induced toxicity (mice [2]) | LD50 ([3]; in vivo) | TD50 [3] | LD50 at 0.5 h [4] | percent blockade of histamine ([5]; 3 mg/kg intravenously, 2 minutes prior to histamine) | Histamine Blockade [5] | TD50 ([3]; in vivo) | LD50 (toxicity) (mice [6]) | audiogenic convulsions (mice [7]) |
| --- | --- | --- | --- | --- | --- | --- | --- | --- | --- | --- |
| Cc1cc(-c2ccccc2)c2nnc(N3CCOCC3)n2n1 [6-methyl-3-(4-morpholinyl)-8-phenyl-s-triazolo[4,3-b]pyridazine] | potentiate bronchoconstriction |  |  |  |  |  |  |  |  |  |
| Cc1cc2nnc(C)n2nc1N1CCOCC1 [Example 2, 3,7-dimethyl-6-morpholino-s-triazolo[4,3-b]pyridazine] |  | much less reduction in convulsive threshold | 148 mg/kg | 135 mg/kg | 228 mg/kg | 61% | 61 |  |  |  |
| c1ccc(-c2nnc3ccc(N4CCOCC4)nn23)cc1 [6-morpholino-3-phenyl-s-triazolo[4,3-b]pyridazine, reference compound] | potent bronchodilator |  | 30 mg/kg |  | > 400 mg/kg |  | 22 | 5 mg/kg | high LD50 (low toxicity) | produce audiogenic convulsions in laboratory animals at relatively low dosages |
